What was measured:
[1] = test system: gastric emptying; experiment: Test 1: gastric emptying enhancing activity (phenol red test meal); format: in vivo, Male Wistar rats; conditions: po, 0.25 h, 60 min before test meal, rat, read-out: Gastric emptying enhancing activity, Increase (emptying rate vs control); for change in vivo at 2 mg/kg: 2.0 mg/kg p.o.
Experimental: The test was carried out according to the method of Scarpignato et al. [cf. Arch. int. Pharmacodyn., 246, 286-294 (1980)].
Male Wistar rats, weighing 130-150 g, were fasted for 18 hours before experimentation, and 1.5 ml of a test meal (phenol red 0.05% in a 1.5% aqueous methylcellulose solution) was given by gastric tube. Fifteen minutes after administration of the meal the stomach was removed and the amount of phenol red remaining in the stomach was measured.
The test compounds, dissolved or suspended in a 0.5% tragacanth solution, were orally administered 60 minutes before administration of the test meal. The rate of gastric emptying was calculated according to the amount of phenol red remaining in the stomach, and the activity of the test compounds was expressed in terms of increase in the emptying rate from the control. The number of animals used was 5 for the control and each dose of metoclopramide hydrochloride monohydrate and 4 for each dose of the other test compounds.

[2] = test system: central nervous system; experiment: Test 3: effect on the central nervous system (CNS effect), Irwin observation; conditions: 100 mg/kg, p.o., mouse, 2 hours observation
Experimental: Male ddY mice, weighing 18-25 g, were used in groups of 3 animals each. […] Psychopharmacologia, 13, 222-227 (1968)], comprehensive observation of behavioral and physiologic states were carried out for 2 hours after the oral treatment with 100 mg/kg of the test compound, dissolved or suspended in a 0.5% tragacanth solution. Liability of the test compounds to the central nervous system effect was expressed with the following marks, according to the total sum of potencies for the individually analyzed effects, such as catalepsy, ptosis, hypolocomotin, etc.

| SMILES | CNS effect [2] | change in vivo at 2 mg/kg [1] [%] | change in vivo at 0.5 mg/kg ([1]; 0.5 mg/kg p.o.) [%] |
| --- | --- | --- | --- |
| CCCCOc1cc(N)c(Cl)cc1C(=O)NCC1CN(Cc2ccc(F)cc2)CCO1 (stereo not shown) [Example 89] | + | 49.9 |  |
| CCOc1cc(N)c(Cl)cc1C(=O)NCCC1CN(Cc2ccccc2)CCO1 (stereo not shown) [Example 8, 4-amino-N-[2-(4-benzyl-2-morpholinyl)ethyl]-5-chloro-2-ethoxybenzamide] | - | 44.9 |  |
| CCCCOc1cc(N)c(Cl)cc1C(=O)NCC1CN(Cc2ccccc2Cl)CCO1 (stereo not shown) [Example 90] | - | 55.4 |  |
| CCOc1cc(N)c(Cl)cc1C(=O)NCC1CN(Cc2cccc(Cl)c2)CCO1 (stereo not shown) [Example 67] | - | 57.5 |  |
| COc1cc(N)c(Cl)cc1C(=O)NCC1CN(Cc2ccccc2)CCO1 (stereo not shown) [18(2), 4-amino-N-[(4-benzyl-2-morpholinyl)methyl]-5-chloro-2-methoxybenzamide] | - | 39.3 |  |

Continued, in another order:

| CNS effect [2] | SMILES | change in vivo at 2 mg/kg [1] [%] | change in vivo at 0.5 mg/kg ([1]; 0.5 mg/kg p.o.) [%] |
| --- | --- | --- | --- |
| - | CC(C)COc1cc(N)c(Cl)cc1C(=O)NCC1CN(Cc2ccccc2)CCO1 (stereo not shown) [Example 91] | 51.2 |  |
| - | CC(C)CCOc1cc(N)c(Cl)cc1C(=O)NCC1CN(Cc2ccccc2)CCO1 (stereo not shown) [Example 93, 4-amino-N-[(4-benzyl-2-morpholinyl)methyl]-5-chloro-2-isopentyloxybenzamide] | 44.2 | 46.9 |
| - | Nc1cc(OC2CCCC2)c(C(=O)NCC2CN(Cc3ccccc3)CCO2)cc1Cl (stereo not shown) [Example 101] | 46.4 |  |
| - | CC(O)COc1cc(N)c(Cl)cc1C(=O)NCC1CN(Cc2ccccc2)CCO1 (stereo not shown) [Example 105] | 52 |  |
